Assay results published in patent publication US20030103863A1, “High pressure sterilising of sensitive active principles” (priority 2000, published 2003).

Experiments:
[1] = HPLC purity after high pressure treatment; format: physicochemical; conditions: powder, high pressure treatment at 5,000 bars
Method: Complementary tests were conducted to show the harmlessness of the treatment by high pressure on the fragile elements. In this case, these elements were placed in solution or in the form of powder.
a) The peptide, in this case Gramicidin, is subjected to a high pressure treatment at 5,000 bars, and its purity was also tested by HPLC, the variations remaining less than 1%. The high pressures have no influence on the structure.

[2] = HPLC chromatography of insulin after high pressure treatment; format: physicochemical; conditions: 4,000, 5,000 and 6,000 bars for 10 minutes, ambient temperature and −20° C.; analyzed at 214 nm
Method: b) Insulin was selected at 40 UI, commercial form, and diluted to {fraction (1/100 )} at pH 2.5. For the measurement, passage is carried out with a flow rate of 1 ml/min in an HPLC (High Pressure Liquid Chromatography) apparatus.
Different specimens were subjected, at ambient temperature and at a negative temperature of −20° C., to:
atmospheric pressure for the standard,
5,000 bars for 10 minutes, and
The specimens, after treatment, are then analyzed at 214 nm in a chromatographic apparatus with automatic injection.

Substance: gramicidin
- variations of purity by HPLC [1]: less than 1%

Substance: insulin
- modifications or alterations of the structure (HPLC curves vs standard at atmospheric pressure) [2]: no noticeable modifications or alterations
